{"source": "patent US20190022225A1", "about": "“PROTOCOL FOR INCREASING LIFE EXPECTANCY IN A TEST SUBJECT” (Mayo Foundation for Medical Education and Research, priority 2015, published 2019)", "key": {"[1]": {"test_system": "3MR or INK-ATTAC mice exposed to cigarette smoke", "experiment": "Cigarette smoke exposure model (COPD), oxygen saturation", "format": "in vivo, mouse", "conditions": "after 2 months of cigarette smoke exposure", "experimental": "Six week-old 3MR (n=35) or INK-ATTAC (n=35) mice were chronically exposed to cigarette smoke generated from a Teague TE-10 system, an automatically-controlled cigarette smoking machine that produces a combination of side-stream and mainstream cigarette smoke in a chamber, which is transported to a collecting and mixing chamber where varying amounts of air is mixed with the smoke mixture. […] Mice received a total of 6 hours of cigarette smoke exposure per day, 5 days a week for 6 months. Each lighted cigarette (3R4F research cigarettes containing 10.9 mg of total particulate matter (TPM), 9.4 mg of tar, and 0.726 mg of nicotine, and 11.9 mg carbon monoxide per cigarette [University of Kentucky, Lexington, Ky.]) was puffed for 2 seconds and once every minute for a total of 8 puffs, with the flow rate of 1.05 L/min, to provide a standard puff of 35 cm^3. The smoke machine was adjusted to produce a mixture of side stream smoke (89%) and mainstream smoke (11%) by smoldering 2 cigarettes at one time. The smoke chamber atmosphere was monitored for total suspended particulates (80-120 mg/m^3) and carbon monoxide (350 ppm). Beginning at day 7, (10) INK-ATTAC and (10) 3MR mice were treated with AP20187 (3×per week) or gancyclovir (5 consecutive days of treatment followed by 16 days off drug, repeated until the end of the experiment), respectively. An equal number of mice received the corresponding vehicle. The remaining 30 mice (15 INK-ATTAC and 15 3MR) were evenly split with 5 of each genetically modified strain placed into three different treatment groups. One group (n=10) received Nutlin-3A (25 mg/kg dissolved in 10% DMSO/3% Tween-20 in PBS, treated 14 days consecutively followed by 14 days off drug, repeated until the end of the experiment). One group (n=10) received ABT-263 (Navitoclax) (100 mg/kg dissolved in 15% DMSO/5% Tween-20, treated 7 days consecutively followed by 14 days off drug, repeated until the end of the experiment), and the last group (n=10) received only the vehicle used for ABT-263 (15% DMSO/5% Tween-20), following the same treatment regimen as ABT-263.\nAfter two months of cigarette smoke exposure, lung function was assessed by monitoring oxygen saturation using the MouseSTAT PhysioSuite pulse oximeter (Kent Scientific). Animals were anesthetized with isoflurane (1.5%) and the toe clip was applied. Mice were monitored for 30 seconds and the average peripheral capillary oxygen saturation (SpO2) measurement over this duration was calculated."}, "[2]": {"test_system": "non-senescent Primary Renal Cortical Cells (renal epithelial cells)", "experiment": "CellTiter-Glo cell viability assay, non-senescent renal epithelial cells", "format": "cell-based", "conditions": "72 h, 3 days", "experimental": "(§1) To determine whether ABT-263 is selectively toxic to senescent cells compared to non-senescent cells, a cell viability assay was used to assess cell survival following treatment with ABT-263. IMR90 cells (human primary lung fibroblasts (IMR90) (IMR-90 (ATCC® CCL-186™, Mannassas, Va.) were seeded in six well plates, and cells were induced to senescence with 10 Gy of ionizing radiation (IR) (Day 0). The media was refreshed every 3 days. The senescent phenotype is allowed to develop for 7 days at which point a cell count was made to determine the baseline number of cells followed by seeding into 96-well plates. On day 8, the senescent cells (irradiated) and the non-senescent cells (the non-radiated cells), were exposed to serial dilutions of ABT-263 for a period of 3 days. ABT-263 concentrations ranged from 0.5 nM to 3 μM. Each condition was seeded in triplicate.\n(§2) After three days of treatment (Day 11), cells were assayed for cell survival using the commercially available CellTiter-Glo® (CTG) Luminescent Cell Viability Assay (Promega Corporation, Madison, Wis.). The assay determines the number of viable cells in culture based on the quantitation of ATP present which is an indicator of metabolically active cells.\n(§3) The methods of Example 7 were repeated in other cell strains. […]"}, "[3]": {"test_system": "senescent (IMR90 Sen(IR)) and non-senescent (IMR90 NS) cells", "experiment": "Senescent cell killing in presence or absence of pan-caspase inhibitor Q-VD-OPh (CellTiter-Glo)", "format": "cell-based, human", "quoted_text": "After senescence was established, cells were re-seeded into 96 well plates. […] At the end of the assay time period, cells were counted. Each condition was seeded in three plate wells and counted independently. […] Cell survival was determined using the commercially available CellTiter-Glo® Luminescent Cell Viability Assay (Promega Corporation, Madison, Wis.). The assay determines the number of viable cells in culture based on the quantitation of ATP present which is an indicator of metabolically active cells.\nAfter senescence was established, cells were re-seeded into 96 well plates. […] At the end of the assay time period, cells were counted. Each condition was seeded in three plate wells and counted independently. […] Cell survival was determined using CellTiter-Glo® Luminescent Cell Viability Assay (Promega Corporation, Madison, Wis.). The assay determines the number of viable cells in culture based on the quantitation of ATP present which is an indicator of metabolically active cells."}, "[4]": {"test_system": "non-senescent IMR90 cells", "experiment": "CellTiter-Glo cell viability assay, non-senescent IMR90", "format": "cell-based", "conditions": "Homo sapiens, IMR-90, 72 h; IMR90, 3 days, CellTiter-Glo; read-out: IC50 on non-senescent cells", "experimental": "as §1, §2\n(§4) The experiments performed for assessing the effect of these other Bcl-2 inhibitors were performed essentially as described in Example 7. Cells were exposed to ABT-199 at serial dilution concentrations ranging from 15 nM to 100 μM (FIGS. 26 and 27). Cells were exposed to Obatoclax at concentrations ranging from 1.4 nM to 9 μM (FIG. 28).\n(§5) The effect of ABT-263 in combination with the Akt inhibitor MK-2206 was tested for selective toxicity of senescent cells compared to non-senescent cells in IMR90 cells. The methods of Example 7 were repeated except that cell cultures were exposed to 10 nM MK-2206 (Selleckem, Cat# S1078) in addition to serial dilutions of ABT-263."}, "[5]": {"test_system": "non-senescent HCA2 foreskin fibroblast cells", "experiment": "CellTiter-Glo cell viability assay, non-senescent HCA2", "format": "cell-based", "conditions": "72 h; HCA2, 3 days; not toxic up to highest concentration", "experimental": "as §1, §2, §3"}, "[6]": {"test_system": "senescent (irradiated) IMR90 cells", "experiment": "Cell counting assay, ABT-263 on senescent IMR90", "format": "cell-based, human", "conditions": "3 μM, 24 hours", "experimental": "(§6) To determine whether ABT-263 is selectively toxic to senescent cells compared to non-senescent cells, a cell counting assay was used to determine cell survival following treatment with ABT-263. […] Each condition was seeded in three wells and counted independently. Cells were counted after a 24 hour exposure to ABT-263 (or control culture)."}, "[7]": {"test_system": "senescent (irradiated) IMR90 cells", "experiment": "CellTiter-Glo cell viability assay, senescent IMR90", "format": "cell-based, human", "experimental": "as §1, §2, §4, §5"}, "[8]": {"test_system": "non-senescent IMR90 cells", "experiment": "Cell counting assay, ABT-263 on non-senescent IMR90", "format": "cell-based, human", "conditions": "3 μM, 24 hours", "experimental": "as §6"}, "[9]": {"test_system": "senescent Primary Renal Cortical Cells (renal epithelial cells)", "experiment": "CellTiter-Glo cell viability assay, senescent renal epithelial cells", "format": "cell-based", "conditions": "72 h, 3 days", "experimental": "as §1, §2, §3"}, "[10]": {"test_system": "senescent HCA2 foreskin fibroblast cells", "experiment": "CellTiter-Glo cell viability assay, senescent HCA2", "format": "cell-based", "conditions": "72 h; HCA2, 3 days", "experimental": "as §1, §2, §3"}, "[11]": {"test_system": "paclitaxel treated p16-3MR mice", "experiment": "Chemotherapy related side effects: voluntary exercise (wheel counts) after paclitaxel in p16-3MR mice", "format": "in vivo, mouse", "conditions": "ABT-263 100 mg/kg ip daily 7 days; ganciclovir 25 mg/kg ip daily 3 days", "experimental": "ABT-263 (100 mg/kg) was administered intraperitoneally daily for seven days after paclitaxel administration. Two days after the last dose of ABT-263, all groups of animals were housed in metabolic cages (promethion, sable systems international, Las Vegas, Nev.) to monitor voluntary exercise as determined by wheel counts. Data were collected and analyzed two days later. Clearance of senescent cells by ABT-263 and ganciclovir restored approximately 70% of wheel count reduction caused by chemotherapy treatment."}}}
{"molecule": "CC1(C)CCC(c2ccc(Cl)cc2)=C(CN2CCN(c3ccc(C(=O)NS(=O)(=O)c4ccc(N[C@H](CCN5CCOCC5)CSc5ccccc5)c(S(=O)(=O)C(F)(F)F)c4)cc3)CC2)C1", "note": "[ABT-263, 4-[4-[[2-(4-chlorophenyl)-5,5-dimethylcyclohexen-1-yl]methyl]piperazin-1-yl]-N-[4-[[(2R)-4-morpholin-4-yl-1-phenylsulfanylbutan-2-yl]amino]-3-(trifluoromethylsulfonyl)phenyl]sulfonylbenzamide]", "values": [{"measurement": "SpO2 levels versus untreated controls", "setting": "[1]", "result": "statistically significant increases"}, {"measurement": "IC50", "setting": "[2]", "result": 0.43, "unit": "µM"}, {"measurement": "selective killing of senescent cells", "setting": "[3]; IMR90, 3 days", "result": "selectively kills senescent cells"}, {"measurement": "percent of surviving senescent cells in the presence of the pan-caspase inhibitor", "setting": "[3]; Q-VD-OPh 20 μM, WEHI-539 1.67 or 5 μM, ABT-263 0.33 or 1 μM, 3 days", "result": "increased"}, {"measurement": "senolytic activity in the presence of a caspase inhibitor", "setting": "[3]; panCaspase inhibitor Q-VD-OPh", "result": "inhibited"}, {"measurement": "IC50", "setting": "[4]", "result": 2.4, "unit": "µM"}, {"measurement": "IC50", "setting": "[5]", "result": "> 3", "unit": "µM"}, {"measurement": "cell counts as percent of counts before treatment", "setting": "[6]", "result": 28, "unit": "%"}, {"measurement": "IC50", "setting": "[7]; Homo sapiens, IMR-90, 72 h, IMR90, 3 days, CellTiter-Glo, read-out: IC50 on senescent cells", "result": 0.14, "unit": "µM"}, {"measurement": "in vitro theoretical therapeutic index", "setting": "[7]; IMR90, non-senescent versus senescent IC50", "result": 17}, {"measurement": "cell growth / survival of non-senescent cells versus starting level", "setting": "[8]", "result": "did not decrease the cell growth below the starting level"}, {"measurement": "IC50", "setting": "[9]", "result": 0.025, "unit": "µM"}, {"measurement": "IC50", "setting": "[10]", "result": 0.41, "unit": "µM"}, {"measurement": "restoration of wheel count reduction caused by chemotherapy treatment", "setting": "[11]", "result": "approximately 70%"}]}
